{
  "source": "patent US20020197261A1",
  "about": "“Therapeutic agent/ligand conjugate compositions, their methods of synthesis and use” (priority 2001, published 2002)",
  "system": "A431 cells",
  "test": "MTT cytotoxicity, 6-hour pretreatment system",
  "assay_type": "cell-based",
  "settings": "Homo sapiens, A-431, read-out: IC50 (50% growth inhibition), 6 hours exposure, washing, additional 72 hours incubation",
  "experimental": "One hundred microliter of growth medium suspending 1000-2000 cells per well was plated out in 96-well plates and incubated for 2 days to allow the cells to attach. Various dilutions of the drug or conjugates were added to each well and the plates were incubated for 72 hours at 37° C. Alternatively, a 6-hour pretreatment protocol was used. Cells were exposed to various concentrations of the drug or conjugate for 6 hours at 37 ° C., and then washed twice with the fresh culture medium. The cells were incubated for additional 72 hours. At the end of the incubation period, twenty microliters of MTT solution from Promega Cell Proliferation Assay kit (Madison, Wis.) were added to the wells. The microplates were then incubated for 1 hour at 37° C. Absorbance was measured at 490 nm using a microplate reader (Molecular Devices Corp, Sunnyvale, Calif.). The data reported represent the means of quadruplicate measurement and the standard errors of the mean were less than 15%.",
  "data": [
    {"smiles": "COc1cccc2c1C(=O)c1c(O)c3c(c(O)c1C2=O)C[C@@](O)(C(=O)CO)C[C@@H]3O[C@H]1C[C@H](N)[C@H](O)[C@H](C)O1", "note": "[Adr, Adriamycin]", "values": [
      {"measurement": "IC50", "value": 17.7, "unit": "µM"}
    ]}
  ]
}
